In PMC4822253, “Inhibition of BMP and of TGFβ receptors downregulates expression of XIAP and TAK1 leading to lung cancer cell death” (Molecular Cancer, 2016):
pIC50: −log10 of the molar value.

What was measured:
[1] = tested on: H1299 cells; assay: Western blot analysis of cells in culture; assay type: cell-based
Procedure: Total cellular protein was prepared using RIPA buffer containing a protease inhibitor cocktail and protein concentration was measured using the BCA assay as described. In brief, protein was analyzed by SDS-PAGE, transferred to nitrocellulose (Schleicher and Schuell, Keene, NH). After blocking, the blots were incubated overnight at 4 °C with the appropriate primary antibody in Tris-buffered saline with 1 % Tween (TBST) and 5 % BSA. Secondary antibodies were applied for 1 h at room temperature. Specific proteins were detected using the enhanced chemiluminescence system (Amersham, Arlington Heights, IL). The primary antibodies that were used were rabbit monoclonal anti-pSmad 1/5, rabbit monoclonal anti-pSmad2, rabbit monoclonal anti-Smad2, rabbit monoclonal anti-pTAK1, rabbit monoclonal XIAP, rabbit anti-monoclonal p-p65, rabbit monoclonal anti-activated caspase-3, rabbit polyclonal anti-BMPRII, and rabbit monoclonal anti-EGR-1 (Cell signaling Technology, Danvers MA), Rabbit monoclonal anti-TAK1 (Invitrogen, Grand Island NY), rabbit anti-actin, an affinity isolated antigen specific antibody (Sigma, Saint Louis, MO), rabbit monoclonal anti-Id1 and rabbit monoclonal anti-Id3 (Calbioreagents, San Mateo, CA), rabbit polyclonal anti-GAPDH (Sigma, St. Louis, MO) and rabbit polyclonal pMEK-1/2 (Cell Signaling, Danvers MA).

[2] = tested on: H1299 Id1-luc cells; assay: Id1-promoter luciferase reporter assay; assay type: cell-based
Procedure: H1299 cells were stably transfected with the Id1-promoter luciferase reporter. Treated cells were lysed with 1X luciferase lysis buffer (Promega). Samples were added to luciferase assay substrate (Promega) and luminsescence measured by the TD-20/20 Luminometer (Turner Designs/Turner BioSystems, Sunnyvale, CA). Control samples included luciferase assay substrate alone and luciferase assay substrate plus 1X reporter lysis buffer.

[3] = molecular target: T1, BMPRII (Homo sapiens, UniProt Q13873); set-up: method as in PMID 23639540; details: reported literature (Table 1); cited from earlier work
T1 construct: purchased Reaction Biology Corporation (Malvern, PA)
T1 sequence (Q13873 27-1038): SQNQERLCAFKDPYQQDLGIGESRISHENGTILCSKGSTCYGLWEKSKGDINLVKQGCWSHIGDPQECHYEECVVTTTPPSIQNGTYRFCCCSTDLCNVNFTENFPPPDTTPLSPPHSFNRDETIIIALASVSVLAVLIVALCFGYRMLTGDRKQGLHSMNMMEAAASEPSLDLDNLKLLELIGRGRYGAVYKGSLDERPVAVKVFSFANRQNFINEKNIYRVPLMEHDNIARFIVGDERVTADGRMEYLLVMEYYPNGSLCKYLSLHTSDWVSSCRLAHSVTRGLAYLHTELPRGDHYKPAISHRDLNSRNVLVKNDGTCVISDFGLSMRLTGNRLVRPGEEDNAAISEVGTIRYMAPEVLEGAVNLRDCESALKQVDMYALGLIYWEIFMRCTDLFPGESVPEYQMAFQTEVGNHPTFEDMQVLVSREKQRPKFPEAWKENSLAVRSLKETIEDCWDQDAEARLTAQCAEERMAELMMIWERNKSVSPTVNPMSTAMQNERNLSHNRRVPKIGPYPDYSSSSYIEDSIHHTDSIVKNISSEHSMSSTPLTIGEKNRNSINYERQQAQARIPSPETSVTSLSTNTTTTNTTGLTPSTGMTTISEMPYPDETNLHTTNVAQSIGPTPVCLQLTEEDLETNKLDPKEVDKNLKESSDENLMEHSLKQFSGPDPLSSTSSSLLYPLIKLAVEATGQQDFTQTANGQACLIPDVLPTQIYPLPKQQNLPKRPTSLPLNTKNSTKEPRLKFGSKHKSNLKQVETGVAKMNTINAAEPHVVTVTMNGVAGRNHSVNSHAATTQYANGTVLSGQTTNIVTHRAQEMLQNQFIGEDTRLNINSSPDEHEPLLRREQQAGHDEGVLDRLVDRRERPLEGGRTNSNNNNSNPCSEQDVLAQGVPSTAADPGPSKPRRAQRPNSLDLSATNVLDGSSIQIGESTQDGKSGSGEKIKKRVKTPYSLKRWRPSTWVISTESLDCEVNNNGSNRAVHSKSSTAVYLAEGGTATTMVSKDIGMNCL

[4] = molecular target: T2, Alk2/ACVRR1 (Homo sapiens, UniProt Q04771); set-up: purchased Reaction Biology Corporation (Malvern, PA); details: reported literature; read-out: IC50 Alk2/ACVRR1; cited from earlier work
T2 sequence (Q04771 21-509): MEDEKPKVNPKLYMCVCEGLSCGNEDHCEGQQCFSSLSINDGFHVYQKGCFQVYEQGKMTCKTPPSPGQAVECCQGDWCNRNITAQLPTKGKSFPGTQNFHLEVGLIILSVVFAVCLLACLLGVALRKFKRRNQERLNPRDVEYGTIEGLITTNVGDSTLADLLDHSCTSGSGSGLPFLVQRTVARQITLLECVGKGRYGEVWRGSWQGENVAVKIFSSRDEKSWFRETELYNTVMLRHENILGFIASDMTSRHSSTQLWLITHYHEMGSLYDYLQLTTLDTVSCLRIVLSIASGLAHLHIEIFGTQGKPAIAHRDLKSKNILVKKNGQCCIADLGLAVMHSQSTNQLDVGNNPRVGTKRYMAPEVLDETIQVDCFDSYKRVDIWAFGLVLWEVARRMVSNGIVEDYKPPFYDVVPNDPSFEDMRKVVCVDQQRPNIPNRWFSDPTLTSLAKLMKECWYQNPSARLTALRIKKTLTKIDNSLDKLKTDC

[5] = molecular target: T3, Alk5/TGFbetaR1 (Homo sapiens, UniProt P36897); details: cited from earlier work
T3 construct: purchased Reaction Biology Corporation (Malvern, PA)
T3 sequence (P36897 34-503): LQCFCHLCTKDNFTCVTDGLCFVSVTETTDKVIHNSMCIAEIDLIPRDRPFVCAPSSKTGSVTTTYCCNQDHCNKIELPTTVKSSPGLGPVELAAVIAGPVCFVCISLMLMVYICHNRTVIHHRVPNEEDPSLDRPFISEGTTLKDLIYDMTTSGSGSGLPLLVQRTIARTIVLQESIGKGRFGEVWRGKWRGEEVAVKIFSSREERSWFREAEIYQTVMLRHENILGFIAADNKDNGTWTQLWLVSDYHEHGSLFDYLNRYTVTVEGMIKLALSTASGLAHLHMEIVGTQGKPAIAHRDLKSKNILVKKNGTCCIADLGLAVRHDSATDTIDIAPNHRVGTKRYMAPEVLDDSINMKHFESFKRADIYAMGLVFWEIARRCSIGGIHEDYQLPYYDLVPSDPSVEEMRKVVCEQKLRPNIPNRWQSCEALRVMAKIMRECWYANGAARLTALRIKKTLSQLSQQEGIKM

[6] = molecular target: Alk3/BMPR1A (Homo sapiens, UniProt P36894); set-up: purchased Reaction Biology Corporation (Malvern, PA); method as in PMID 23639540; details: reported literature; cited from earlier work
[7] = tested on: H1299 cells; assay: Cell death assay (ethidium bromide uptake); assay type: cell-based; details: H1299 cells; after 3 days
Procedure: Cells were plated in 6 well plates with 10^6 cells per well. Three days following treatment with inhibitor(s) and/or transfection the adherent and floating cells were harvested and incubated with 0.1 mg/ml of ethidium bromide. Cells that die by necrosis or apoptosis lose membrane integrity and take up ethidium bromide. Immediately after staining approximately 100 cells were counted and the percentage of cells that took up ethidium bromide was determined.

[8] = tested on: A549 cells; assay: Cell counts (live cells, trypan blue); assay type: cell-based; details: compound alone, 7 days
Procedure: (§1) Cells were plated into 6 well plates at 10^5 cells per well and treated with 1 μM DMSO or antagonist for 7 days. The cells were detached with trypsin, stained with trypan blue, and the number of live cells counted using a hemocytometer.

[9] = tested on: H1299 cells; assay: Cell counts (live cells, trypan blue); assay type: cell-based; details: compound alone, 7 days
Procedure: as §1

Sequence of Alk3/BMPR1A (P36894 24-532): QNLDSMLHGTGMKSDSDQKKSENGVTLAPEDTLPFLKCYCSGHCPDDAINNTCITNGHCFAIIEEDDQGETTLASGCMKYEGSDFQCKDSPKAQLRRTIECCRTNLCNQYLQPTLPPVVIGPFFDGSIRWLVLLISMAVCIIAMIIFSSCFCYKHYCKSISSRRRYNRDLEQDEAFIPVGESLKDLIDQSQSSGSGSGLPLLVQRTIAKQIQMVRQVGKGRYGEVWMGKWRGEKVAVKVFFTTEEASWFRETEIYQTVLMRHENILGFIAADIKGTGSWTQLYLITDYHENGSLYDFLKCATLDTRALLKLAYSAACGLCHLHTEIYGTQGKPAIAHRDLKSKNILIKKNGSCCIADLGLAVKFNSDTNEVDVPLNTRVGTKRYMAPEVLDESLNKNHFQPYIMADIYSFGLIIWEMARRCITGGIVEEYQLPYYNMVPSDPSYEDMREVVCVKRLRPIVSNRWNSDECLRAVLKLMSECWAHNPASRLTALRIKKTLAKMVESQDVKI

COc1cc(O)c2c(c1)/C=C/C[C@H](O)[C@H](O)C(=O)/C=C\C[C@H](C)OC2=O [5Z, 5Z-7-oxozeaenol]
expression of pSmad 1/5, Id1, and pTAK1 ([1]; H1299 cells, after 24 h): dose-related decrease | expression of Id1, pSmad 1/5, and pTAK1 ([1]; H1299 cells, after 48 h): increasing | Id1 promoter activity ([2]; 2 μM, after 24 h): suppressed | Id1 promoter activity ([2]; after 48 h): no longer suppressed

CC(C)Oc1ccc(-c2cnc3c(-c4ccnc5ccccc45)cnn3c2)cc1 [DMH1]
inhibition of BMPRII [3]: does not occur | expression of Smad2 ([1]; H1299 cells, 3 days): did not show significant regulation | expression of XIAP ([1]; H1299 cells, after 3 days (cell line not stated for DMH1 and LDN)): did not downregulate | activation of caspase-3 ([1]; H1299 cells, after 3 days, alone or in combination with SB): did not activate | activation of Smad2 and TAK1 ([1]; in vitro 48 h, cell line not stated in legend): activation | pIC50 [4]: 6.97 | activity for TGFβ receptors [5]: no activity | pIC50 [6]: 8.30 | cell death [7]: little cell death

O=C(NOC[C@H](O)CO)c1ccc(F)c(F)c1Nc1ccc(I)cc1F [PD0325901]
promoter activity of Id1 (Id-1 luciferase reporter) ([2]; 48 h): did not regulate

Cc1cccc(-c2[nH]c(C(C)(C)C)nc2-c2ccc3c(c2)OCO3)n1 [SB]
expression of Id1 ([1]; H1299 cells, compound alone, increasing doses): dose-related increase | Id1 promoter activity ([2]; compound alone): increase | growth (cell counts) [8]: growth suppression | growth (cell counts) [9]: little effect
